# Data published in US9193777B2, “Method of treating cardiac arrhythmia with long acting atrial natriuretic peptide(LA-ANP)” (Mayo Foundation for Medical Education and Research, priority 2009, dated 2015).
# Marks after values point to notes of the source that are not given here.
# Key:
# [1] = system: isolated perfused hearts obtained from male rats; test: Isolated heart model: atrial monophasic action potential and effective refractory period; conditions: isolated rat heart; for effect on MAP duration (in words): 40-minute perfusion; for decrease in MAPD90 versus baseline: mANP n=8, ANP n=10
# Procedure: Atrial monophasic action potentials and effective refractory periods were measured in isolated perfused hearts obtained from male rats. Rapid cardiectomy was performed in male rats weighing 300-350 g, under general anesthesia with pentobarbital. The hearts were retrogradely perfused via the aorta at constant pressure and temperature (100 mmHg and 37° C.) with Kreb's-Henseleit buffer filtered at 0.22 μm and bubbled with 95% O2/5% CO2 at 37° C. and pH 7.4. Coronary perfusion flow was monitored constantly (T402, Transonic Systems, Ithaca, N.Y.) and remained >10 ml/min.
# After establishment of a stable perfused heart preparation, the posterior atria were cut away to expose the left and right atrial endocardium and the atrioventricular (AV) node was mechanically crushed, resulting in AV dissociation. The right atrium was paced (Bloom Electrophysiology, via Fischer Imaging, Denver, Colo.) at a cycle length of 150 msec with a 0.1 msec pulse width using a bipolar platinum-tipped electrode (NuMED, Inc., Hopkinton, N.Y.), while the right ventricle was paced at a cycle length of 500 msec. A monophasic action potential (MAP) probe (Harvard Apparatus, Holliston, Mass.) was maintained in a single position on the anterior left atrial endocardium. Amplified signals (IsoDam, World Precision Instruments, Sarasota, Fla.) were digitally acquired at 2 kHz (USB-6210 and LabVIEW 8.2, National Instruments, Austin, Tex.). The MAP duration was measured at 90% repolarization on atrial beats without far field ventricular interference. The effective refractory period (ERP) was measured by delivering extrastimuli via the pacing catheter at decremental coupling intervals following at least 8 beats of a 150 ms cycle-length drive train. […] In separate heart preparations, the perfusion buffer was supplemented after baseline data acquisition with 100 nM of either ANP or mANP to assess the effect of both the wild-type and mutant hormones on MAP duration and ERP.
# A two-sided t-test was used for comparison of data, assuming equal variance. Data are expressed as mean±S.E., and results were considered significant at p<0.05.
# [2] = system: 10 week old male FVB mice; test: Programmed electrical stimulation of the ventricles in anesthetized mice; type: in vivo, mouse; conditions: for ERP versus 30 minute saline group (in words) / ERP (ventricular effective refractory period) / Heart rate / PR interval / QRST interval: anesthetized mice; for ERP versus 30 minute saline group (in words): 30 minute treatment, ANOVA; for ERP (ventricular effective refractory period) / Heart rate / PR interval / QRST interval: after 30 minute peritoneal infusion 33 pmol/kg/min following 330 pmol/kg bolus, n=3; for VT score: sum over three mice, after 30 minute infusion, higher score = greater resistance to arrhythmia induction
# Procedure: Programmed electrical stimulation of the ventricles was performed across the diaphragm via bipolar electrode catheter placed through an abdominal incision in 10 week old male FVB mice anesthetized with inhaled isoflurane, and was continuously monitored by electrocardiogram. Electrophysiologic parameters were analyzed at baseline and after a 30 minute peritoneal infusion of saline vs. 33 pmol/kg/min ANP or mANP, following a 330 pmol/kg bolus. […] The ventricular tachycardia (VT) score was obtained by scoring 1 point for induction of sustained VT with a single extrastimulus, 2 points for induction with double extrastimuli, and 3 points for failure to induce with single or double extrastimuli. Nonsustained VT (less than 1 second) was not scored. The score for each of three mice in a group was added. A higher score indicates greater resistance to arrhythmia induction.
# [3] = 100 nM, 40 minutes perfusion, mean±S.E.
Compound,effect on MAP duration (in words) ([1]; 100 nM),"decrease in MAPD90 versus baseline [1, 3] [ms]",ERP versus 30 minute saline group (in words) [2],ERP (ventricular effective refractory period) [2],Heart rate [2],PR interval [2],QRST interval [2],VT score [2],"reduction in effective refractory period (ERP) versus baseline ([1]; 100 nM, 40 minutes perfusion, mean±S.E., mANP n=7, ANP n=6) [ms]","effect on ERP (in words) ([1]; 100 nM, compared to wild-type ANP)","MAP duration at 90% repolarization (MAPD90), representative MAP ([1]; after 40-minute perfusion with 100 nM peptide, shortened from 47 msec at baseline) [ms]"
"CC[C@H](C)[C@@H]1NC(=O)[C@H](CCCNC(=N)N)NC(=O)[C@H](CC(=O)O)NC(=O)[C@H](CCSC)NC(=O)[C@H](CCCNC(=N)N)NC(=O)CNC(=O)CNC(=O)[C@H](Cc2ccccc2)NC(=O)[C@@H](NC(=O)[C@H](CO)NC(=O)[C@H](CO)NC(=O)[C@H](CCCNC(=N)N)NC(=O)[C@H](CCCNC(=N)N)NC(=O)[C@H](CC(C)C)NC(=O)[C@@H](N)CO)CSSC[C@@H](C(=O)N[C@@H](CC(N)=O)C(=O)N[C@@H](CO)C(=O)N[C@@H](Cc2ccccc2)C(=O)N[C@@H](CCCNC(=N)N)C(=O)N[C@@H](Cc2ccc(O)cc2)C(=O)O)NC(=O)CNC(=O)[C@H](CC(C)C)NC(=O)CNC(=O)[C@H](CO)NC(=O)[C@H](CCC(N)=O)NC(=O)[C@H](C)NC(=O)CNC1=O [ANP, atrial natriuretic peptide]",not significantly changed,0.7 ± 1.7,not a significant difference,28 + 2 msec,255 + 8 min^−1,73 + 4 msec,23 + 1 msec,3,,,
mANP: Full-length 40-amino acid mutant ANP: normal 28-amino acid mature peptide plus an anomalous carboxyl-terminus of 12 residues (SLRRSSCFGGRMDRIGAQSGLGCNSFRYRITAREDKQGWA; listed as Homo sapiens),significant shortening,9 ± 2,significantly shorter,19 + 4* msec,243 + 16 min^−1,76 + 4 msec,26 + 1 msec,5,7.1 ± 2.4,significant shortening,41
